According to patent US20240336638A1, “IMIDAZOLE COMPOUND, AND INTERMEDIATE AND APPLICATION THEREOF” (priority 2021, published 2024):

tested on: AA-induced platelet aggregation; experiment: Inhibitory effect on AA-induced platelet aggregation in rats in vitro (washed platelets); assay type: cell-based, rat; conditions: 1*10^−4 M
Description: Several experimental groups were established, including a blank control group, an AA (arachidonic acid) model control group, and various test compounds. Each test compound had three concentration groups: 10^−3 M, 10^−4 M, and 10^−5 M. The data from the blank and model control group were shared among the different drug concentration groups as a control.
Male SD rats were anesthetized with 3% chloral hydrate (300 mg/kg) through intraperitoneal injection. After being fixed in a supine position, the skin of the neck was cut about 3 cm, bluntly separated with a hemostat, and the trachea was exposed after the common carotid artery was separated. The distal end of the common carotid artery was ligated with a fine thread, and the proximal end was clamped with an arterial clamp for vascular intubation. After the intubation was fixed, the artery clamp was opened, and the blood was placed into a blood collection tube containing 3.8% trisodium citrate so that the blood was mixed well with the 3.8% trisodium citrate in a volume ratio of 9:1.
The prepared anticoagulant blood was mixed well and centrifuged for 10 minutes at 500 rpm, then the upper layer of plasma was aspirated to obtain platelet-rich plasma (PRP), and the PRP was centrifuged again for 5 minutes at 3,000 rpm. The supernatant was discarded, and the platelet precipitate was obtained, which was washed once with Ca^2+-free HEPES-Tyrode's buffer, then centrifuged at 3,000 rpm for 5 minutes. The supernatant was discarded, and the platelets were resuspended with Ca^2+-free HEPES-Tyrode's buffer to obtain the washed platelets.
First, 300 μL of Ca^2+-containing HEPES-Tyrode's solution was taken into the test cup, put into the test wells, and calibrated by pressing the “PPP” key. Subsequently, 240 μL of the washed platelets were added to the test cup, then added with 30 μL of different concentrations of drug solution, incubated for 10 minutes at 37° C. in a preheated bath, and then put into the test wells. 3 μL of 100× CaCl2 solution (final concentration of 0.2 g/L) and 30 μL of inducer (final concentration of AA of 800 μM) were added to the test wells, and then the “Start” key was pressed immediately. The maximum aggregation rate was recorded every 60 s. The measurement was repeated three times for each concentration for 10 minutes, and the aggregation curve was plotted.
The platelet aggregation inhibition rate was calculated with the following formula:
Inhibition rate (%)=(maximum aggregation rate in the model control group−maximum aggregation rate in the administration group)/maximum aggregation rate in the model control group×100%
All data were expressed as mean±standard deviation (mean±SD). SPSS 22.0 software was used for statistical analysis of the data. Intergroup data were analyzed using one-way ANOVA, with P<0.05 considered as statistically significant and P<0.01 considered as highly significant.

| SMILES | significant inhibition of AA-induced platelet aggregation |
| --- | --- |
| Cc1cc([C@@H]2C[C@H]2C(=O)O)ccc1Cn1cnc(Cl)c1 [Compound 4, (1R,2R)-2-(4-((4-Chloro-1H-imidazol-1-yl)methyl)-3-methylphenyl)cyclopropane-1-carboxylic acid] | can significantly inhibit |
| Cc1cc(Cn2cnc(F)c2)ccc1[C@@H]1C[C@H]1C(=O)O [Compound 5, (1R,2R)-2-(4-((4-Fluoro-1H-imidazol-1-yl)methyl)-2-methylphenyl)cyclopropane-1-carboxylic acid] | can significantly inhibit |
| Cc1cc(Cn2ccnc2)ccc1[C@@H]1C[C@H]1C(=O)O [Compound 7, (1R,2R)-2-(4-((1H-Imidazol-1-yl)methyl)-2-methylphenyl)cyclopropane-1-carboxylic acid] | can significantly inhibit |
| Cc1cc([C@@H]2C[C@H]2C(=O)O)ccc1Cn1cnc(F)c1 [Compound 8, (1R,2R)-2-(4-((4-Fluoro-1H-imidazol-1-yl)methyl)-3-methylphenyl)cyclopropane-1-carboxylic acid] | can significantly inhibit |
| O=C(O)[C@@H]1C[C@H]1c1ccc(Cn2cnc(Cl)c2)c(F)c1 [Compound 14, (1R,2R)-2-(4-((4-Chloro-1H-imidazol-1-yl)methyl)-3-fluorophenyl)cyclopropane-1-carboxylic acid] | can significantly inhibit |
| O=C(O)[C@H]1C[C@@H]1c1ccc(Cn2ccnc2)cc1 [Compound 20, (1S,2S)-2-(4-((1H-Imidazol-1-yl)methyl)phenyl)cyclopropane-1-carboxylic acid] | can significantly inhibit |
| Cc1cc([C@H]2C[C@@H]2C(=O)O)ccc1Cn1cnc(Cl)c1 [Compound 24, (1S,2S)-2-(4-((4-Chloro-1H-imidazol-1-yl)methyl)-3-methylphenyl)cyclopropane-1-carboxylic acid] | can significantly inhibit |
| Cc1cc(Cn2cnc(F)c2)ccc1[C@H]1C[C@@H]1C(=O)O [Compound 25, (1S,2S)-2-(4-((4-Fluoro-1H-imidazol-1-yl)methyl)-2-methylphenyl)cyclopropane-1-carboxylic acid] | can significantly inhibit |
| Cc1cc(Cn2ccnc2)ccc1[C@H]1C[C@@H]1C(=O)O [Compound 27, (1S,2S)-2-(4-((1H-Imidazol-1-yl)methyl)-2-methylphenyl)cyclopropane-1-carboxylic acid] | can significantly inhibit |
| Cc1cc([C@H]2C[C@@H]2C(=O)O)ccc1Cn1cnc(F)c1 [Compound 28, (1S,2S)-2-(4-((4-Fluoro-1H-imidazol-1-yl)methyl)-3-methylphenyl)cyclopropane-1-carboxylic acid] | can significantly inhibit |
| O=C(O)[C@H]1C[C@@H]1c1ccc(Cn2cnc(Cl)c2)c(Cl)c1 [Compound 31, (1S,2S)-2-(3-Chloro-4-((4-chloro-1H-imidazol-1-yl)methyl)phenyl)cyclopropane-1-carboxylic acid] | can significantly inhibit |
| O=C(O)[C@H]1C[C@@H]1c1ccc(Cn2cnc(Cl)c2)cc1F [Compound 33, (1S,2S)-2-(4-((4-Chloro-1H-imidazol-1-yl)methyl)-2-fluorophenyl)cyclopropane-1-carboxylic acid] | can significantly inhibit |
| O=C(O)[C@H]1C[C@@H]1c1ccc(Cn2cnc(Cl)c2)c(F)c1 [Compound 34, (1S,2S)-2-(4-((4-Chloro-1H-imidazol-1-yl)methyl)-3-fluorophenyl)cyclopropane-1-carboxylic acid] | can significantly inhibit |
| O=C(O)[C@H]1C[C@@H]1c1ccc(Cn2ccnc2)c(F)c1 [Compound 35, (1S,2S)-2-(4-((1H-Imidazol-1-yl)methyl)-3-fluorophenyl)cyclopropane-1-carboxylic acid] | can significantly inhibit |
| O=C(O)[C@H]1C[C@@H]1c1ccc(Cn2cnc(F)c2)cc1F [Compound 37, (1S,2S)-2-(2-Fluoro-4-((4-fluoro-1H-imidazol-1-yl)methyl)phenyl)cyclopropane-1-carboxylic acid] | can significantly inhibit |
| O=C(O)[C@H]1C[C@@H]1c1ccc(Cn2cnc(F)c2)c(Cl)c1 [Compound 38, (1S,2S)-2-(3-Chloro-4-((4-fluoro-1H-imidazol-1-yl)methyl)phenyl)cyclopropane-1-carboxylic acid] | can significantly inhibit |
